Assay results from article PMC3024946, “Hydroxyproline-containing collagen analogs trigger the release and activation of collagen-sequestered proMMP-2 by competition with prodomain-derived peptide P33-42” (Fibrogenesis & Tissue Repair, 2011).
Entries after “also recorded” stand apart in the source; their conditions may differ.

Legend:
ProMMP-2 [1] = assay: Fluorogenic short-substrate assay, activation of proMMP-2; assay type: biochemical, human; conditions: 10-fold excess; 50 ng proMMP-2; 800 nM MCA-Pro-Leu-Gly-Leu-Dnp-Dap-Ala-Arg-NH2; 37°C; on BSA or CI
Description: Enzymatic activities of MMPs were studied spectrofluorimetrically by cleavage of fluorogenic substrates in MMP activity buffer within 2 to 5 h. For gelatinases 800 nM MCA-Pro-Leu-Gly-Leu-Dnp-Dap-Ala-Arg-NH2 (λex/em 328/393 nm; Bachem, Bubendorf, Switzerland) or 10 μg/ml DQ-gelatine were used, according to the method described by Knight et al. for collagenases 800 nM MCA-Pro-Cha-Gly-Nva-His-Ala-Dpa-NH2 (λex/em 280/360 nm; Anaspec, San José, CA, USA). In some experiments, proMMP-2 was fully activated in the presence of 1 mM APMA prior to the kinetic measurements. A quantity of 50 ng pro- or actMMP-2 alone or mixed with 10- to 150-fold molar excesses of (GPO)10, GAP, P33-42 or mixtures of (GPO)10 and P33-42, were added to CI-coated, BSA-coated (1 μg/well both) or uncoated wells containing 150 μl of the respective substrate solution. The peptide P33-42 was purchased from the Institute of Biochemistry (Humboldt-University, Berlin, Germany). The influence of CI on MMP-2 enzymatic activity against the quenched fluorescent substrate could be excluded. Background subtraction (measurement without MMPs) was applied to all curves. All experiments were performed with a fluorescence microplate reader (Molecular Devices, Sunnyvale, CA, USA) and black 96-well microtiter plates with a clear bottom (Greiner bio-one, Frickenhausen, Germany).

ProMMP-2 [2] = assay: Substrate gel zymography of treated proMMP-2; assay type: biochemical, human; conditions: 50 ng proMMP-2, 2-h incubation at room temperature
Description: Samples containing MMP-2 were diluted with zymogram sample buffer (Bio-Rad, Munich, Germany) and separated on homogeneous 10% SDS-PAGE gels containing 1 mg/ml (wt/vol) gelatine (Bio-Rad), washed with excess MMP activity buffer containing 2.5% (vol/vol) Triton X-100 to remove SDS, and incubated with MMP activity buffer for 24 h. Gels were stained with Coomassie Blue R-250. Gels showing proteolytic bands corresponding to proMMP-2 (72 kDa) or actMMP-2 (62 kDa) were scanned (Plustek, Norderstedt, Germany) and analyzed from inverted grayscale images.

actMMP-2 / CI = biological target: T1, actMMP-2 / CI (Homo sapiens, UniProt P08253); assay: SPR, competition of actMMP-2 binding to CI, MMP activity buffer with Ro 28-2653; conditions: actMMP-2 100 nM, 1 μM Ro 28-2653, 25°C, mean ± SD, at least three experiments
T1 construct: purchased Invitek
T1 sequence (P08253 110-660): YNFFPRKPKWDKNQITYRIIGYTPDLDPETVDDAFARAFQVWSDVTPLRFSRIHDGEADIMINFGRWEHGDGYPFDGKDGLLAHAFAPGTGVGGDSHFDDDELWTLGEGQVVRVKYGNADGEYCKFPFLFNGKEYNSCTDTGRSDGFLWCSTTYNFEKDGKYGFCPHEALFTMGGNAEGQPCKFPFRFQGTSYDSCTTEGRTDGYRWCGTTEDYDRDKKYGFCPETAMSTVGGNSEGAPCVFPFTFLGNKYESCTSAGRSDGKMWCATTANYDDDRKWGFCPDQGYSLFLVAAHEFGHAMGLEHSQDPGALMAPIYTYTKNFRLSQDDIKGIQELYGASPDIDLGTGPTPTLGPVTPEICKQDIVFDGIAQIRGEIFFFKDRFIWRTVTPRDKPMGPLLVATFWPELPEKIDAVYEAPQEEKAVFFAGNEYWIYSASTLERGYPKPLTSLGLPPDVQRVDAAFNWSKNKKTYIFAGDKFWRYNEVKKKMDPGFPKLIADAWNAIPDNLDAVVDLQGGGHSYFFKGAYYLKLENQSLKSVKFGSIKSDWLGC
Description: (§1) Sensor chip preparations and SPR measurements were performed using a BiacoreX device and the Bia-evaluation software (version 3.2; Biacore, Uppsala, Sweden). The pepsin-resistant triple-helical part of human fibrillar CI (100 μg/ml) in 10 mM acetate coupling buffer, pH 4.8, was immobilized to a dextran matrix-sensor chip at a flow rate of 5 μl/min, resulting in 5,500 resonance units from CI covalently linked via its primary amino groups. The control flow cell was prepared using the coupling buffer without CI. Surfaces were activated and blocked as described previously. […] The effects of (GPO)10, GAP, (POG)5, (GPP)10 and P33-42 on MMP-2 and MMP-9 binding to CI and their enzymatic activity were determined by adding the binding competitors to the (pro- and act)MMP-2 and MMP-9 solution in 10- to 150-fold molar excesses. Effects independent of MMP-2 and MMP-9 activity were monitored in the presence of Ro 28-2653 (1 μM) during SPR analysis. […] Kinetic parameters were analyzed using the 1:1 binding model with drifting baseline and subtraction of the control flow cell binding from sensorgrams obtained with immobilized CI. Binding constants (Kd) were calculated from the association (ka) and dissociation rates (kd) obtained from individual binding curves at different concentrations. […]

actMMP-9 / CI = biological target: T2, actMMP-9 / CI (Homo sapiens, UniProt P14780); assay: SPR, competition of actMMP-9 binding to CI, nonactivating buffer; conditions: actMMP-9 (100 nM) binding to CI with 10× (GPO)10; PBS, 0.05% Tween 20
T2 construct: purchased Invitek
Description: as §1

[3] = tested on: Cy2-proMMP-2 bound to cirrhotic human liver tissue; assay: Release / prevention of binding of Cy2-proMMP-2 in cirrhotic liver sections; conditions: 10-fold molar excess, fluorescence microscopy
Description: ProMMP-2 was labeled using the FluoroLink Cy2 Labeling Kit according to the manufacturer's instructions (Amersham Biosciences, Freiburg, Germany). Unbound fluorescent dye was removed by ultrafiltration (Nanosep, Lund, Sweden), and labeling success was monitored using a fluorescence microplate reader (λex/em, 489/506 nm). Serial cirrhotic human liver sections were covered with 1.2 μg/ml Cy2-proMMP-2 in 50 mM Tris·HCl, pH 7.4, containing 1 mM CaCl2 or with buffer alone, and were incubated in a dark humidified chamber for 24 h at 4°C. To study effects of (GPO)10, a 10-fold molar excess in relation to proMMP-2 was added to slides prior to or after Cy2-proMMP-2 binding. Slides were washed with PBS, air-dried, and rinsed with deionized water. Bound Cy2-proMMP-2 was detected by fluorescence microscopy (Olympus, Hamburg, Germany).

T2 sequence (P14780 107-707 limits assumed): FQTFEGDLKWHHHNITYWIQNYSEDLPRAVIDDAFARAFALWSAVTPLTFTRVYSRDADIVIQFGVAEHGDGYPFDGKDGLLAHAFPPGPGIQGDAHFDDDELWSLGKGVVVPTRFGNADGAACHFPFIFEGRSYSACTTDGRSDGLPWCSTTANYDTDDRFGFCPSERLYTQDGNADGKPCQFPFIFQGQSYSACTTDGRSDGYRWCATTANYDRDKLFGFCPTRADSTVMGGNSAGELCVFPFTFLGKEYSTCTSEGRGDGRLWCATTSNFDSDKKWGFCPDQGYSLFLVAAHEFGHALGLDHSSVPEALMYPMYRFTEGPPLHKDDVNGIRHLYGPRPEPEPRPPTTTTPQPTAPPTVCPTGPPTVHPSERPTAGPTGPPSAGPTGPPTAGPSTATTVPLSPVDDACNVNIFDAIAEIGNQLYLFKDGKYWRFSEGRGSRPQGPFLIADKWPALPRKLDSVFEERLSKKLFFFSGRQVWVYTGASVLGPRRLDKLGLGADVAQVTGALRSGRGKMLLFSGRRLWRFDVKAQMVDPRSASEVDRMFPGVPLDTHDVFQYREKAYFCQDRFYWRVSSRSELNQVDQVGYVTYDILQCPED

- Kd for binding to CI in the presence of 10-fold molar excess of competitor (actMMP-2 / CI): 2,710.0 ± 90.0 nM
- Off rate (actMMP-9 / CI): 0.61 s⁻¹
- prevention of binding of Cy2-proMMP-2 ([3]; coincubation): prevented gelatinase binding
Substance: H-Gly-Cys-Hyp-(Gly-Pro-Hyp)10-Gly-Cys-Hyp-Gly-NH2 [(GPO)10, triple-helical Hyp-containing collagen analog]
- activation of proMMP-2 (ProMMP-2 [1]): resulted in the same plateau activity as actMMP-2 without (GPO)10
- substrate zymography, prodomain-free actMMP-2 band (ProMMP-2 [2]): faint band of prodomain-free actMMP-2; also recorded: not accompanied by strong prodomain cleavage
- release of bound Cy2-proMMP-2 ([3]; subsequent treatment): promoted effective release of the sequestered enzyme
